# According to patent US10563263B2, “Genetic polymorphisms associated with statin response and cardiovascular diseases, methods of detection and uses thereof” (CELERA CORPORATION, priority 2010, dated 2020):
# System: CHD (fatal CHD, definite non-fatal MI, or revascularization)
# Assay: CARE: SNP by pravastatin treatment interaction, logistic regression (synergy index), CHD endpoint
# Assay type: in vivo, human
# Details: for OR (synergy index, SNP by pravastatin treatment interaction): CARE; for OR (synergy index), CARE, Prava vs Placebo: CHD endpoint
# Source text: CARE was a secondary prevention trial and WOSCOPS was a primary prevention trial.
# The CHD endpoint was defined in the analyses herein of CARE as a composite endpoint of fatal CHD, definite non-fatal MI, or revascularization, and was defined in the analyses herein of WOSCOPS as a composite endpoint of death from CHD, nonfatal MI, or revascularization. In both the CARE and WOSCOPS analyses herein, the CVD endpoint was defined as a composite endpoint of CHD or stroke. […] Revascularization, which can include percutaneous transluminal coronary angioplasty (PTCA), stent placement, and coronary artery bypass graft (CABG), are medical interventions that indicate the presence of CHD.
# Cohort and case-only study designs were used to identify SNPs associated with response to statin treatment.
# For each SNP, a logistic regression model having treatment status as the dependent variable and SNP as the independent predictor variable was performed, with terms for age, sex and race included in the model as covariates. The anti-log of the regression coefficient corresponding to the SNP is an estimate of the synergy index (SI) (Davis et al., “Imputing gene-treatment interactions when the genotype distribution is unknown using case-only and putative placebo analyses-a new method for the Genetics of Hypertension Associated Treatment (GenHAT) study”, Statistics in Medicine 23: (2004), pages 2413-2427). The SI is a ratio of odds ratios: for example in the CARE and WOSCOPS studies, the SI represents the factor by which the odds-ratio of statin treatment, compared with placebo, among major homozygous individuals is multiplied by in order to obtain the odds-ratio of treatment vs. placebo among heterozygous individuals; and multiplied by a second time to obtain the odds-ratio of treatment vs. placebo in minor homozygous individuals. The case-only study design results in a valid estimate of the SI under the assumption that genotype and treatment are independent in the population. In a randomized clinical trial, genotype and treatment are independent by design. The p-value for the regression coefficient corresponding to the SNP results from a test of the null hypothesis that the regression coefficient is equal to zero (SI is equal to one) and thus small p-values indicate the SI is unlikely equal to one and that the effect of treatment likely differs by genotype.
# A case-only study design was used to test whether the reduction of CHD events by statin therapy (for CARE and WOSCOPS studies) differed according to genotype (a treatment by SNP interaction) for each SNP evaluated in the study.
smiles,measurement,setting,value
"CC[C@H](C)C(=O)O[C@H]1C[C@H](O)C=C2C=C[C@H](C)[C@H](CC[C@@H](O)C[C@@H](O)CC(=O)O)[C@H]21 [Pravastatin, pravastatin]","OR (synergy index, SNP by pravastatin treatment interaction)","rs992695, Imputed, allele C, model ADD, NMISS 790, 95% CI 0.4976-0.8019",0.6317
same,"OR (synergy index, SNP by pravastatin treatment interaction)","rs992695, Imputed, allele C, model DOM, NMISS 790, 95% CI 0.4546-0.8068",0.6056
same,"OR (synergy index, SNP by pravastatin treatment interaction)","rs9881685, Imputed, allele A, model ADD, NMISS 799, 95% CI 0.3695-0.7488",0.526
same,"OR (synergy index, SNP by pravastatin treatment interaction)","rs9881685, Imputed, allele A, model DOM, NMISS 799, 95% CI 0.3327-0.7106",0.4862
same,"OR (synergy index, SNP by pravastatin treatment interaction)","rs9936999, Imputed, allele G, model DOM, NMISS 485, 95% CI 1.294-2.746",1.885
same,"OR (synergy index), CARE, Prava vs Placebo","SNP rs198462 (A1 G, A2 A), rec model, Caseonly",1.57
same,"OR (synergy index), CARE, Prava vs Placebo","SNP rs198476 (A1 G, A2 A), rec model, cohort",1.58
same,"OR (synergy index), CARE, Prava vs Placebo","SNP rs471579 (A1 A, A2 C), add model, Caseonly",1.26
same,"OR (synergy index), CARE, Prava vs Placebo","SNP rs1324012 (A1 A, A2 G), add model, Caseonly",0.78
same,"OR (synergy index), CARE, Prava vs Placebo","SNP rs1917527 (A1 A, A2 C), rec model, Caseonly",0.34
same,"OR (synergy index), CARE, Prava vs Placebo","SNP rs2768652 (A1 C, A2 T), add model, cohort",1.22
same,"OR (synergy index), CARE, Prava vs Placebo","SNP rs6563805 (A1 A, A2 G), add model, cohort",0.76
same,"OR (synergy index), CARE, Prava vs Placebo","SNP rs7873371 (A1 A, A2 G), add model, Caseonly",1.25
same,"OR (synergy index), CARE, Prava vs Placebo","SNP rs12553453 (A1 C, A2 A), add model, cohort",1.22
same,"OR (synergy index), CARE, Prava vs Placebo","SNP rs12635482 (A1 C, A2 A), rec model, cohort",0.54
same,CARE OR,"rs1948 allele A vs G (ref), Source CaseOnly",1.52
same,CARE OR,"rs151806 allele G vs A (ref), Source cohort",0.60
same,CARE OR,"rs205279 allele A vs G (ref), Source Caseonly",1.94
same,CARE OR,"rs238272 allele A vs G (ref), Source CaseOnly",1.44
same,CARE OR,"rs312929 allele G vs A (ref), Source cohort",0.72
same,CARE OR,"rs316720 allele G vs A (ref), Source cohort",0.67
same,CARE OR,"rs331555 allele A vs C (ref), Source cohort",0.72
same,CARE OR,"rs354342 allele A vs G (ref), Source Caseonly",0.70
same,CARE OR,"rs453625, allele A1 A (non-ref), A2 G (ref), source cohort, endpoint/model not given",0.66
same,CARE OR,"rs610118 allele G vs A (ref), Source cohort",0.43
same,CARE OR,"rs669684 allele G vs A (ref), Source cohort",0.69
same,CARE OR,"rs842796 allele A vs G (ref), Source cohort",1.72
same,CARE OR,"rs886469 allele G vs A (ref), Source cohort",0.70
same,CARE OR,"rs969356 allele G vs A (ref), Source cohort",0.69
same,CARE OR,"rs1035618 allele A vs C (ref), Source Caseonly",1.38
same,CARE OR,"rs1076733, allele A1 A (non-ref), A2 G (ref), source cohort, endpoint/model not given",0.70
same,CARE OR,"rs1182878, allele A1 A (non-ref), A2 G (ref), source cohort, endpoint/model not given",0.79
same,CARE OR,"rs1343563 allele C vs A (ref), Source cohort",0.61
same,CARE OR,"rs1349282 allele A vs G (ref), Source cohort",0.55
same,CARE OR,"rs1382787 allele G vs A (ref), Source cohort",1.37
same,CARE OR,"rs1474396, allele A1 A (non-ref), A2 C (ref), source cohort, endpoint/model not given",1.35
same,CARE OR,"rs1615197 allele G vs A (ref), Source CaseOnly",1.54
same,CARE OR,"rs1884897 allele A vs G (ref), Source cohort",2.24
same,CARE OR,"rs2008165 allele G vs A (ref), Source cohort",0.57
same,CARE OR,"rs2023650 allele A vs G (ref), Source cohort",0.76
same,CARE OR,"rs2060411 allele A vs G (ref), Source cohort",1.37
same,CARE OR,"rs2104506 allele A vs C (ref), Source cohort",0.75
same,CARE OR,"rs2129571, allele A1 A (non-ref), A2 G (ref), source cohort, endpoint/model not given",0.62
same,CARE OR,"rs2145540 allele A vs G (ref), Source cohort",0.51
same,CARE OR,"rs2268650 allele A vs G (ref), Source cohort",0.64
same,CARE OR,"rs2273816 allele A vs G (ref), Source CaseOnly",1.56
same,CARE OR,"rs2290193, allele A1 C (non-ref), A2 A (ref), source cohort, endpoint/model not given",0.53
same,CARE OR,"rs2376764 allele A vs G (ref), Source Caseonly",0.61
same,CARE OR,"rs2418412 allele G vs A (ref), Source cohort",2.20
same,CARE OR,"rs2483641, allele A1 A (non-ref), A2 G (ref), source cohort, endpoint/model not given",0.65
same,CARE OR,"rs2534752 allele G vs A (ref), Source cohort",1.60
same,CARE OR,"rs2626130 allele G vs A (ref), Source cohort",1.29
same,CARE OR,"rs2695026 allele A vs G (ref), Source Caseonly",0.70
same,CARE OR,"rs2793086 allele C vs A (ref), Source cohort",0.61
same,CARE OR,"rs2941528 allele A vs G (ref), Source CaseOnly",0.72
same,CARE OR,"rs3000490 allele G vs A (ref), Source cohort",1.45
same,CARE OR,"rs3213616 allele A vs G (ref), Source cohort",0.62
